Assay results published in ChEMBL document CHEMBL3865791, “Discovery and development of natural product oridonin-inspired anticancer agents” (Eur J Med Chem, 2016).

What was measured:
[1] = Antiproliferative activity against human CaEs17 cells after 72 hrs by MTT assay; format: functional, cell-based; settings: CaEs17, 72 h
[2] = Anticancer activity against human K562 cells measured after 24 hrs by MTT assay; format: functional, cell-based; settings: K562, 24 h
[3] = Oral bioavailability in Wistar rat at 10 mg/kg, ip administered as single dose measured after 36 hrs by HPLC/ESI-MS analysis; format: ADME, organism-based; settings: in vivo, intraperitoneal
[4] = Antiproliferative activity against human MCF7 cells; format: functional, cell-based
[5] = Antitumor activity against H22 cells xenografted in ICR mouse assessed as tumor growth inhibition at 20 mg/kg/day, ip administered for 4 consecutive days relative to control; format: functional; settings: read-out: TGI
[6] = Antiproliferative activity against human ER-triple negative MDA-MB-468 cells measured after 48 hrs by MTT assay; format: functional, cell-based; settings: MDA-MB-468, 48 h
[7] = Antiproliferative activity against human […] cells after 24 hrs by MTT assay; format: functional, cell-based
[8] = Anticancer activity against human SW620 cells measured after 24 hrs by MTT assay; format: functional, cell-based; settings: SW-620, 24 h
[9] = Anticancer activity against human RPMI8226 cells measured after 48 hrs by trypan blue assay; format: functional, cell-based; settings: RPMI-8226, 48 h
[10] = Anticancer activity against human Kasumi-1 cells measured after 48 hrs by CCK8 assay; format: functional, cell-based; settings: Kasumi 1, 48 h
[11] = Antiproliferative activity against human MDA-MB-231 cells measured after 48 hrs by MTT assay; format: functional, cell-based; settings: MDA-MB-231, 48 h
[12] = Antiproliferative activity against human MCF7/ADR cells measured after 48 hrs by MTT assay; format: functional, cell-based; settings: NCI/ADR-RES
[13] = Antiproliferative activity against human […] cells after 72 hrs by MTT assay; format: functional, cell-based
[14] = Anticancer activity against AML cells isolated from AML-ETO9a leukemia mouse measured after 48 hrs by CCK8 assay; format: functional, cell-based
[15] = Anticancer activity against human U266 cells measured after 48 hrs by trypan blue assay; format: functional, cell-based; settings: U-266, 48 h
[16] = Antiproliferative activity against human ER-positive MCF7 cells measured after 48 hrs by MTT assay; format: functional, cell-based; settings: MCF7, 48 h
[17] = Antiproliferative activity against human MDA-MB-231 cells; format: functional, cell-based
[18] = Anticancer activity against human MT1 cells measured after 48 hrs by trypan blue assay; format: functional, cell-based; settings: MT1, 48 h
[19] = Antiproliferative activity against human K562 cells after 72 hrs by MTT assay; format: functional, cell-based; settings: K562, 72 h
[20] = Anticancer activity against human Hep2 cells measured after 24 hrs by MTT assay; format: functional, cell-based; settings: HEp-2, 24 h
[21] = Anticancer activity against human Jurkat cells measured after 48 hrs by trypan blue assay; format: functional, cell-based
[22] = Oral bioavailability in Wistar rat at 20 mg/kg administered as single dose through gavage measured after 48 hrs by HPLC/ESI-MS analysis; format: ADME, organism-based; settings: in vivo
[23] = Anticancer activity against human SW480 cells measured after 24 hrs by MTT assay; format: functional, cell-based; settings: SW480, 24 h
[24] = Anticancer activity against rat HSC-T6 cells measured after 48 hrs by alamar blue assay; format: functional, cell-based; settings: HSC-T6, 48 h
[25] = Anticancer activity against human K562/ADR cells measured after 24 hrs by MTT assay; format: functional, cell-based
[26] = Anticancer activity against human PC3 cells measured after 48 hrs by CCK8 assay; format: functional, cell-based; settings: PC-3, 48 h
[27] = Anticancer activity against human MT2 cells measured after 48 hrs by trypan blue assay; format: functional, cell-based; settings: MT2, 48 h
[28] = Anticancer activity against human LX2 cells measured after 48 hrs by alamar blue assay; format: functional, cell-based; settings: LX-2, 48 h
[29] = Antiproliferative activity against human MGC803 cells after 72 hrs by MTT assay; format: functional, cell-based; settings: MGC-803, 72 h
[30] = Antitumor activity against human MGC803 cells xenografted in ICR mouse assessed as tumor growth inhibition at 40 mg/kg/day, ip for 25 consecutive days relative to control; format: functional; settings: MGC-803, ip, read-out: TGI
[31] = Anticancer activity against human LNCAP cells measured after 48 hrs by CCK8 assay; format: functional, cell-based

With `C=C1C(=O)[C@]23[C@H](O)[C@H]1CC[C@H]2[C@@]12CO[C@]3(O)[C@@H](O)[C@@H]1C(C)(C)CC[C@@H]2O` [ORIDONIN] as the molecule, how does the EC50 [1] read?
Its EC50 is 11 µM.

And the EC50 [2]?
Its EC50 is 14.6 µM.

And the bioavailability [3]?
The bioavailability was 12.6%.

And the EC50 [4]?
Its EC50 is 6.6 µM.

And the inhibition in vivo at 20 mg/kg/day [5]?
The inhibition in vivo at 20 mg/kg/day was 42.7%.

And the EC50 [6]?
The EC50 was 5.3 µM.

And the EC50 [7]?
Its EC50 is 29.8 µM.

And the EC50 [8]?
Its EC50 is 20.8 to 37 µM.

And the EC50 [9]?
The EC50 was 1.2 to 2.7 µM.

And the EC50 [10]?
The EC50 was 1.33 µM.

What about the EC50 [11] of the same molecule?
Its EC50 is 28 to 29.4 µM.

And the EC50 [12]?
Its EC50 is 34.8 µM.

What about the EC50 [13] of the same molecule?
Its EC50 is 7.48 µM.

And the EC50 [14]?
Its EC50 is 2.5 µM.

And the EC50 [15]?
The EC50 was 1.2 to 2.7 µM.

What about the EC50 [16] of the same molecule?
Its EC50 is 4.4 µM.

What about the EC50 [17] of the same molecule?
Its EC50 is 29.4 µM.

And the EC50 [18]?
Its EC50 is 1.2 to 2.7 µM.

What about the EC50 [19] of the same molecule?
Its EC50 is 4.76 µM.

And the EC50 [20]?
Its EC50 is 37.1 µM.

What about the EC50 [21] of the same molecule?
The EC50 was 1.2 to 2.7 µM.

What about the bioavailability [22] of the same molecule?
The bioavailability was 4.3%.

And the EC50 [23]?
Its EC50 is 20.8 to 37 µM.

What about the EC50 [24] of the same molecule?
Its EC50 is 7 µM.

What about the EC50 [25] of the same molecule?
The EC50 was under 40 µM.

What about the EC50 [26] of the same molecule?
The EC50 was 25 µM.

And the EC50 [27]?
The EC50 was 1.2 to 2.7 µM.

What about the EC50 [28] of the same molecule?
Its EC50 is 7 µM.

And the EC50 [29]?
The EC50 was 5.69 µM.

And the inhibition in vivo at 40 mg/kg/day [30]?
Its inhibition in vivo at 40 mg/kg/day is 37.3%.

And the EC50 [31]?
The EC50 was 25 µM.
